Assay results reported in PMC3411353 (Tetrahedron letters, 2010).
Square brackets hold non-standard residues; d marks the D form. Peptide text beside a SMILES is read from it.

What was measured:
KOR [1] = target: KOR (Mus musculus, UniProt P33534); experiment: competition radioligand-binding assay, KOR, [^3H]U69,593, mouse brain membranes
KOR [2] = conditions: after a single injection, result in words; ref [1a]; cited from earlier work

SMILES | Ki (KOR [1]) [nM] | duration of antagonist activity (KOR [2])
O=C1N[C@@H](Cc2ccccc2)C(=O)N2CCC[C@@H]2C(=O)N[C@@H](Cc2ccccc2)C(=O)N[C@H]1Cc1c[nH]c2ccccc12 [L-Trp isomer, cyclo[Phe-D-Pro-Phe-Trp]] (cyclo(FWF[dP])) | 21.2 ± 5.6 | –
Oc1ccc2c3c1O[C@H]1c4[nH]c5c(c4C[C@@]4(O)[C@@H](C2)N(CC2CC2)CC[C@]314)C[C@@]1(O)[C@H]2Cc3ccc(O)c4c3[C@@]1(CCN2CC1CC1)[C@H]5O4 [norBNI, norbinaltorphimine] | – | lasting for weeks to more than a month
CC(C)[C@@H](CN1CC[C@@](C)(c2cccc(O)c2)[C@@H](C)C1)NC(=O)[C@H]1Cc2ccc(O)cc2CN1 [JDTic, (3R)-7-hydroxy-N-[(1S)-1-[[(3R,4R)-4-(3-hydroxyphenyl)-3,4-dimethyl-1-piperidinyl]methyl]-2-methylpropyl]-1,2,3,4-tetrahydro-3-isoquinolinecarboxamide] | – | lasting for weeks to more than a month
NC(N)=Nc1ccc2[nH]c3c(c2c1)C[C@@]1(O)[C@H]2Cc4ccc(O)c5c4[C@@]1(CCN2CC1CC1)[C@H]3O5 [GNTI, 5′-guanidinonaltrindole] | – | lasting for weeks to more than a month
